Test results published in US20230212122A1, “MITOCHONDRIAL TARGETING COMPOUNDS FOR THE TREATMENT OF ASSOCIATED DISEASES” (The Regents of the University of Michigan, priority 2020, published 2023).

Legend:
Assay type in all cases: cell-based
[1] = system: UM16 cell line; test: Nascent RNA sequencing (Bru-seq), gene fold change; details: 5 μM, 4 hours; protein-coding, upregulated
Source text: Consistent with this observation, there are also massive metabolite pathways influenced including starch and sucrose metabolism, glycolysis and gluconeogenesis, purine metabolism, pyrimidine metabolism, N-glycan biosynthesis, etc.

[2] = system: BxPc3 cells; test: MTT assay, cancer cell growth inhibition (BxPC-3); details: Homo sapiens, BXPC-3, 168 h, 7 days of treatment
Protocol: Measurement of cancer cell growth inhibition of the compounds of invention Cytotoxicity of the compounds was assessed by MTT assay. In brief, MIA PaCa-2 cells or BxPc3 cells were seeded in 96-well microtitre plates at density of 200 cells/well. After overnight attachment, cells were treated with compounds at indicated concentration. After 7 days of treatment, MTT solution (3 mg/ml, 20 μl) was added to each well and cells were incubated for 3 h at 37° C. After incubation, media from each well was removed and the dark blue formazan crystals formed by live cells were dissolved in DMSO ([…] per well). The absorbance intensity was measured at 570 nm on a microplate reader (Molecular Devices, Sunnyvale, Calif., USA). The half maximal inhibitory concentration (IC50) value were calculated using 4 or 6 dots curve plotted with Cumulative Gaussian equation or Log(inhibitor) vs. response equation in GraphPad Prism.

[3] = system: UM16 cell line; test: Proteomics, protein fold change; details: for Fold change: 5 μM
Source text: Several proteins participating in energy metabolism were dramatically changed.

Compound: CCOC(=O)[C@@H]1CCCN(S(=O)(=O)c2ccc(S(=O)(=O)N(CC)CC)cc2)C1 [DX2-201, ethyl (R)-1-((4-(N,N-diethylsulfamoyl)phenyl)sulfonyl)piperidine-3-carboxylate]
- Fold change ARHGAP30 [1]: 1.728
- Fold change ARRDC3 [1]: 1.707
- Fold change BNIP3L [1]: 1.723
- Fold change CCNG2 [1]: 1.668
- Fold change CREBRF [1]: 1.676
- Fold change ERRFI1 [1]: 1.77
- Fold change FOXO6 [1]: 1.954
- Fold change HDAC5 [1]: 1.811
- Fold change KLHL24 [1]: 2.336
- Fold change LOXL4 [1]: 1.73
- Fold change MXD4 [1]: 1.812
- Fold change MXI1 [1]: 1.785
- Fold change NDRG1 [1]: 2.874
- Fold change PDK1 [1]: 1.779
- Fold change PPP1R3C [1]: 1.699
- Fold change PRDM1 [1]: 1.748
- Fold change RNF122 [1]: 1.915
- Fold change SEMA3B [1]: 1.668
- Fold change SOX12 [1]: 1.903
- Fold change UPRT [1]: 1.74
- Fold change VLDLR [1]: 1.741
- Fold change YPEL1 [1]: 1.706
- Fold change ZNF546 [1]: 1.757
- IC50 [2]: 630 ± 240 nM
- Serine protease 23, nuclear receptor family 2 group F member 6, protein NDRG1 (proteomic results) [3]: upregulated
- Glycerol kinase fold change ([3]; 24 hours, top upregulated): 3 fold
- dihydrolilpoyl dehudrogenase fold change ([3]; downregulated, TCA cycle enzyme): 0.684
- Fold change ([3]; protein ABTB2, 24 hours): 0.778
- Fold change ([3]; protein ALAS1, 24 hours): 1.393
- Fold change ([3]; protein ANKH, 24 hours): 0.777
- Fold change ([3]; protein ANKRD54, 24 hours): 0.799
- Fold change ([3]; protein AP1S2, 24 hours): 0.792
- Fold change ([3]; protein AP2S1, 24 hours): 0.781
- Fold change ([3]; protein APBB1IP, 24 hours): 1.458
- Fold change ([3]; protein BTBD10, 24 hours): 1.651
- Fold change ([3]; protein CCDC88C, 24 hours): 0.785
- Fold change ([3]; protein CCNT2, 24 hours): 1.65
- Fold change ([3]; protein CDC42BPA, 24 hours): 1.514
- Fold change ([3]; protein CDCA5, 24 hours): 0.761
- Fold change ([3]; protein CMTM4, 24 hours): 1.678
- Fold change ([3]; protein CYP51A1, 24 hours): 1.636
- Fold change ([3]; protein DHTKD1, 24 hours): 1.384
- Fold change ([3]; protein DLD, 24 hours): 0.684
- Fold change ([3]; protein DOLPP1, 24 hours): 0.731
- Fold change ([3]; protein DOPEY2, 24 hours): 0.797
- Fold change ([3]; protein DTNBP1, 24 hours): 0.794
- Fold change ([3]; protein FAH, 24 hours): 0.785
- Fold change ([3]; protein FAU, 24 hours): 0.742
- Fold change ([3]; protein Hist1h1d, 24 hours): 0.703
- Fold change ([3]; protein KIAA0355, 24 hours): 1.48
- Fold change ([3]; protein MED27, 24 hours): 0.79
- Fold change ([3]; protein MROH1, 24 hours): 1.386
- Fold change ([3]; protein NAA35, 24 hours): 1.377
- Fold change ([3]; protein NDRG1, 24 hours): 1.55
- Fold change ([3]; protein NOL8, 24 hours): 0.771
- Fold change ([3]; protein NR2F6, 24 hours): 1.842
- Fold change ([3]; protein NRGN, 24 hours): 0.795
- Fold change ([3]; protein OGFOD2, 24 hours): 0.754
- Fold change ([3]; protein OSTC, 24 hours): 1.418
- Fold change ([3]; protein PDCL, 24 hours): 0.752
- Fold change ([3]; protein PLP2, 24 hours): 0.763
- Fold change ([3]; protein PRSS23, 24 hours): 1.844
- Fold change ([3]; protein RCCD1, 24 hours): 1.443
- Fold change ([3]; protein RDH13, 24 hours): 1.429
- Fold change ([3]; protein RRM2B, 24 hours): 1.395
- Fold change ([3]; protein RUSC1, 24 hours): 0.771
- Fold change ([3]; protein SCAMP2, 24 hours): 0.729
- Fold change ([3]; protein SLC25A15, 24 hours): 0.796
- Fold change ([3]; protein TADA3, 24 hours): 1.45
- Fold change ([3]; protein TCEAL1, 24 hours): 1.382
- Fold change ([3]; protein TMEM55B, 24 hours): 1.664
- Fold change ([3]; protein UQCC3, 24 hours): 1.635
- Fold change ([3]; protein ZBTB21, 24 hours): 0.709
- Fold change ([3]; protein gk, 24 hours): 3.009
- Fold change ([3]; protein krt17, 24 hours): 1.386
- Fold change ([3]; protein pop7, 24 hours): 0.736
- Fold change ([3]; protein scaf8, 24 hours): 1.508
